Reference: patent publication US12624017B2, “Salt form of isoquinolinone type compound as rock inhibitor and preparation method therefor” (GUANGZHOU OCUSUN OPHTHALMIC BIOTECHNOLOGY CO., LTD., priority 2020, dated 2026)

Columns and labels:
[1] = Hygroscopicity research by dynamic vapor sorption (DVS); format: physicochemical; conditions: 25° C. and 80% RH
Protocol: Dynamic Vapor Sorption (DVS) Method
Instrument model: SMS DVS intrinsic dynamic vapor sorption instrument
A dynamic water sorption experiment consists of adsorption and desorption. It is generally believed that at a set relative humidity, the adsorption or desorption of the sample to moisture at this relative humidity is considered to have reached equilibrium when the sample weight reaches dm/dt≤0.01%.
Sample testing temperature: T=25° C.
Equilibrium time: dm/dt: 0.01%/min
Relative humidity variation range: 0%-95%-0%; RH (%)
Test humidity change at each step: 5%
The evaluation of hygroscopicity is classified as follows:
SMS DVS intrinsic dynamic vapor sorption instrument
10 to 15 mg of the crystal form B of the compound of formula (II) was put in a DVS sample tray for testing.

[2] = Solid stability research (crystal form stability on storage); format: physicochemical; conditions: 40° C./75% RH 6 months; 25° C./60% RH 12 months
Protocol: The crystal form B of the compound of formula (II) was placed at 40° C./75% RH (sealed with a double-layer LDPE bag and further heat-sealed with an aluminum foil bag) for 6 months, and placed at 25° C./60% RH (sealed with a double-layer LDPE bag and further heat-sealed with an aluminum foil bag) for 12 months, respectively. The crystal form was tested individually at each sampling point to determine the crystal form stability of the sample.

In the case of Cc1ccc(C(=O)OCn2cc(C)c3c(S(=O)(=O)N4CC[C@H](N)C4)cccc3c2=O)c(C)c1, the Classification of hygroscopicity [1] is reported as “slightly hygroscopic”, the “ΔW, hygroscopic weight gain” value ([1]; DVS) is reported as 0.736% and the “Stability in accelerated and long-term tests” value [2] is reported as “good stability”.
